According to article PMC5201116, “Bioactive Flavonoids and Catechols as Hif1 and Nrf2 Protein Stabilizers - Implications for Parkinson’s Disease” (Aging and Disease, 2016):
Where two headings read alike, the source gives them in different places.

Tests used:
[1] = test system: HIF1 ODD-luc reporter (SH-SY5Y cell line); assay: HIF1 ODD-luc reporter assay; format: cell-based; conditions: for fold induction at 10 µM: Homo sapiens, SH-SY5Y, 3 h, read-out: ODD-luc fold activation; for fold induction at 10 µM / ODD-luc fold activation: 3 h incubation, at 10 µM
Experimental: (§1) SH-SY5Y cell lines stably expressing HIF1 ODD-luc or Neh2-luc reporters were grown in the DMEM/F12 supplemented with GlutaMAX (Thermo Fisher Scientific) containing 10% FBS, 100 U/ml penicillin, and 100 μg/ml streptomycin and plated into 384-well white flat-bottom plates at 7,000 cell/well in 30 µl serum and incubated overnight at 37°C, 5% CO2. The next day compounds were added to a final concentration of 10 µM and the plates were incubated for 3 hours at 37°C. Reporter activation after 3 h incubation with the studied compound was compared to that for ciclopirox (HIF1 ODD-luc reporter) or TBHQ (Neh2-luc reporter), taken as 100%. Luciferase reporter activity was measured with a SteadyGlo reagent from Promega providing stable reading for 1 h.
(§2) Cells were plated at the density of 25,000 cell per well using a WellMate multichannel dispenser from Matrix (Thermo Fisher Scientific, Waltham, MA) and grown overnight on DMEM/F12+GlutaMAX (100 µl per well). Then an inhibitor was added, and the plates were incubated for a fixed time interval; the medium was removed, cells lysed, and luciferase activity was measured on a SpectraMax M5e platereader (Molecular Devices, Sunnyvale, CA) with BrightGlo™ reagent (Promega, Madison, WI). The reporter activation was normalized to the background luminescence. The effect of 0.5 mM N-acetylcysteine (NAC) was studied by simultaneous addition of 5 µL of 10 mM stock of NAC in water and 2 µL of 50x stock solutions of a flavonoid in DMSO.

[2] = Non-enzymatic ferricyanide reduction rate constant; format: physicochemical; conditions: 1 mM ferricyanide, pH 7.0
Experimental: The rate of ferricyanide reduction by individual flavonoids was measured spectrophotometrically at 420 nm with the fixed concentration of ferricyanide (1 mM) and varied concentrations of a flavonoid in Potassium-phosphate buffer, pH 7.0. The rate constant for direct ferricyanide reduction was calculated from the slope of the dependence reaction rate vs flavonoid concentration and used as a measure of flavonoid non-specific reducing power.

[3] = test system: Neh2-luc reporter (SH-SY5Y cell line); assay: Neh2-luc reporter assay; format: cell-based; conditions: for Neh2-luc fold activation / fold induction at 10 µM: at 10 µM, 3 h incubation; for EC50: Neh2-luc; for fold induction at 10 µM: read-out: Neh2-luc fold activation
Experimental: as §1, §2

[4] = Iron binding constant, calcein displacement assay; format: physicochemical; conditions: for Iron complex Diss. Const: calcein displacement
From the text: Calcein displacement assay in the presence of varied concentrations of flavonoids and catechols has been used. Calcein release from its complex with iron was monitored by fluorescence as described in [26].

[5] = test system: HRE-luciferase reporter (HT22 hippocampal cell line); assay: HRE-luc reporter assay; format: cell-based; conditions: for fold induction at 10 µM: Mus musculus, HT-22, 3 h, read-out: HRE-luc fold activation; for fold induction at 10 µM / HRE-luc fold activation: at 10 µM
From the text: A promoter-reporter construct that contained 68 bp of a known hypoxia and HIF-1 regulated gene, enolase, containing a wild type hypoxia response element (HRE, 5’-RCTGT-3’), is a widely used approach for screening for HIF activators of different mechanism of action. A cell-based assay with HRE-luciferase reporter system is based on transfected immortalized hippocampal cell line (HT22) and allows screening for a broad spectrum of compounds that include: activators of HIF transcription; activators of HIF binding to HRE; and effectors of HIF protein stability (PHD inhibitors, pVHL & proteasome inhibitors). The assay was performed the same way as for HIF ODD-luc reporter except the cells were plated at the density of 10,000 cell per well and incubated overnight.

[6] = design: method as in PMID 17112238; conditions: cited from earlier work

Structure (SMILES) | Neh2-luc fold activation [3] | Iron complex Diss. Const [4] | fold induction at 10 µM [5] | ODD-luc fold activation [1] | HRE-luc fold activation [5] | EHOMO [6] | other results
O=c1c(O)c(-c2ccccc2)oc2ccccc12 [compound 1, 3-Hydroxyflavone] | inactive | 2.0 ± 0.2 µM | 1.5 ± 0.2 |  |  |  | fold induction at 10 µM [1]: 1.5 ± 0.2; FC red Rate Const [2]: inactive; Neh2-luc fold activation ([3]; listed as 3-hydroxyflavone): completely inactive; Iron complex Diss. Const ([4]; listed as 3-Hydroxyflavone): ca. 2 µM
O=c1c(O)c(-c2ccccc2)oc2cc(O)ccc12 [compound 2, 3,7-Dihydroxy-] |  | 2.5 ± 0.3 µM |  |  |  |  | FC red Rate Const [2]: inactive
O=c1c(O)c(-c2ccc(O)cc2)oc2ccccc12 [compound 3, 3,4'-Dihydroxy-] |  | 2.5 ± 0.2 µM |  | Inactive | Inactive |  | FC red Rate Const [2]: Inactive
COc1ccc(-c2oc3ccccc3c(=O)c2O)cc1 [compound 4, 3-Hydroxy-4'-methoxy-] |  | 4.0 ± 0.4 µM |  |  |  |  | 
COc1ccc2c(=O)c(O)c(-c3ccccc3)oc2c1 [compound 5, 3-Hydroxy-7-methoxy-] | Inactive | 5.0 ± 0.5 µM |  | Inactive | Inactive |  | Iron complex Diss. Const ([4]; listed as 3-hydroxy-7-methoxyflavone): ca. 5 µM
COc1ccc2c(=O)c(OC)c(-c3ccccc3)oc2c1 [compound 6, 3,7-Dimethoxy-] | Inactive |  |  | Inactive | inactive |  | 
O=c1c(O)c(-c2ccccc2)oc2cccc(O)c12 [compound 7, 3,5-Dihydroxy-] | Inactive | 2.5 ± 0.3 µM | 2 ± 0.2 |  |  |  | fold induction at 10 µM [1]: 1.3 ± 0.2; FC red Rate Const [2]: inactive
O=c1c(O)c(-c2ccccc2)oc2cc(O)cc(O)c12 [compound 8, Galangin] | Inactive | 3.5 ± 0.4 µM | 1.3 ± 0.2 | Inactive |  | -8.90 eV | FC red Rate Const [2]: 48000 ± 6000 M⁻¹ s⁻¹
O=c1c(O)c(-c2ccc(O)cc2)oc2cc(O)cc(O)c12 [compound 9, Kaempferol] |  | 2.5 ± 0.3 µM | 1.5 ± 0.2 | Inactive |  | -8.74 eV | FC red Rate Const [2]: 369000 ± 42000 M⁻¹ s⁻¹; EC50 ([3]; Homo sapiens, SH-SY5Y): 5 µM; fold induction at 10 µM ([3]; Homo sapiens, SH-SY5Y): 15 ± 2; drop in Neh2-luc reporter activation with NAC ([3]; simultaneous addition of 0.5 mM NAC, results not shown): 2 fold
O=c1c(O)c(-c2ccc(O)cc2O)oc2cc(O)cc(O)c12 [compound 12, Morin] | Inactive | 2.5 ± 0.3 µM | 1.3 ± 0.2 | Inactive |  | -8.81 eV | Neh2-luc fold activation ([3]; listed as morin): completely inactive
O=c1c(O)c(-c2cc(O)c(O)c(O)c2)oc2cc(O)cc(O)c12 [compound 13, Myricetin] |  | 2.0 ± 0.2 µM | 2 ± 0.2 |  |  | -8.80 eV | fold induction at 10 µM [1]: 1.3 ± 0.2; EC50 ([3]; Homo sapiens, SH-SY5Y): 2 µM; fold induction at 10 µM ([3]; Homo sapiens, SH-SY5Y): 25 ± 3
O=c1cc(-c2ccccc2)oc2cccc(O)c12 [compound 14, 5-hydroxyflavone] | Inactive | Inactive |  | Inactive | Inactive | -9.12 eV | Iron complex Diss. Const ([4]; listed as 5-hydroxyflavone): does not bind iron in solution
O=c1cc(-c2ccccc2)oc2cc(O)cc(O)c12 [compound 15, Chrysin] | Inactive | Inactive | 1.2 ± 0.15 | Inactive |  | -9.25 eV | 
O=c1cc(-c2ccc(O)cc2)oc2cc(O)cc(O)c12 [compound 16, Apigenin] | Inactive | Inactive | 1.3 ± 0.15 | Inactive |  | -9.15 eV | 
O=c1cc(-c2ccccc2)oc2c(O)c(O)ccc12 [compound 20, 7,8-Dihydroxyflavone] | Inactive | 0.7 ± 0.1 µM | 3.6 ± 0.4 |  |  | -9.23 eV | fold induction at 10 µM [1]: 1.5 ± 0.2; iron dissociation constant [4]: ca. 700 nM
COc1cc(C)c2c(=O)cc(-c3ccccc3)oc2c1 [compound 21, Methoxyvone] | Inactive | Inactive | 3.2 ± 0.35 | Inactive |  |  | 
CC(C)Oc1ccc2c(=O)c(-c3ccccc3)coc2c1 [compound 22, Ipriflavone] | Inactive | Inactive | 2.5 ± 0.3 | Inactive |  |  | 
O=c1c(-c2ccc(O)cc2)coc2cc(O)cc(O)c12 [compound 23, Genistein] | Inactive | Inactive | 1.5 ± 0.2 | Inactive |  |  | 
O=c1c(-c2ccc(O)cc2)coc2cc(O)cc(O)c12 [compound 24, 5-Hydroxy-daidzein] |  |  |  |  | Inactive |  | 
O=c1c(-c2ccc(O)cc2)coc2c(O)c(O)ccc12 [compound 25, 8-Hydroxy-daidzein] | Inactive | 1.5 ± 0.3 µM |  | Inactive | Inactive |  | 
O=c1c(-c2ccc(O)cc2)coc2cc(O)ccc12 [compound 26, Daidzein] | Inactive | Inactive |  | Inactive | Inactive |  | ODD-luc fold activation ([1]; listed as daidzein): did not cause any activation effect; Neh2-luc fold activation ([3]; listed as daidzein): not
N[C@H](Cc1ccc(O)c(O)c1)C(=O)O [compound 30, 3,4-Dihydroxy-D-phenylalanine] | Inactive | 2.5 ± 0.3 µM |  | Inactive | Inactive |  | EC50 ([3]; Homo sapiens, SH-SY5Y): 20 µM
O=C(NO)c1ccc(O)c(O)c1 [compound 33, 3,4-Dihydroxy-benzohydroxamate] | Inactive | 1.5 ± 0.3 µM |  |  |  |  | ODD-luc: concentration above which active [1]: Active above 100 µM; ODD-luc: concentration above which active ([1]; listed as Didox): above 100 µM; EC50 [3]: 100 µM; HRE-luc: concentration above which active [5]: Active above 100 µM
O=C(O)CN(CC(=O)O)Cc1cc2c(cc1O)Oc1cc(O)c(CN(CC(=O)O)CC(=O)O)cc1C21OC(=O)c2ccccc21 [compound 34, Calcein, reference compound] | Inactive | 0.05 ± 0.01 µM | 1.7 ± 0.2 |  |  |  | fold induction at 10 µM [1]: 2 ± 0.25
